The text below walks through data of US20260209274A1, “COMPOSITION FOR SKIN REPIGMENTATION” (BELLA AURORA LABS, S.A., priority 2022, published 2026).

Assay [1] deals with reconstructed human pigmented epidermis (RHPE). Put plainly: In vitro repigmentation assay in reconstructed human pigmented epidermis (RHPE), samples irradiated. The following applies: Example 1; irradiated with 150 J/m^2 at 300 W/m^2 on day2, day3, day4; A 3.0 ppm, B 0.4 ppm, A + B 1.5 ppm + 0.2 ppm (7.5:1). Format: cell-based. The procedure: (§1) For assessing the repigmentation effect, a reconstructed epidermis model was used, namely, based on adding melanocytes and keratinocytes on a polycarbonate filter (SkinEthic® RHPE, available from the company Episkin).
(§2) Sample tissues were treated with the test products for 6 days (from day1 to day6). After each dosing, the samples were incubated at 37° C., and melanin extraction was performed after 6 days of treatment (at day7). Untreated samples were also included in the assay as controls. An evaluation of cell viability was also performed.
(§3) After treatment, melanin extraction was performed by plunging each sample filter into 800 μl of Solvable® (Perkin Elmer) and heating at 63° C. overnight. The optical density of the supernatants was measured on 300 μl extract at 405 nm using synthetic melanin as reference. 6 samples were used for each treatment and the mean value was calculated.
Another analogous assay, with the same treatments, was performed but simultaneously irradiating the samples. In this second assay, the samples were irradiated with 150 J/m^2 at 300 W/m^2 three times on consecutive days (on day2, day3, and day4 of the assay).
(§4) For each of the treatments the increase in the amount of melanin generated versus the control (0) was calculated. For analysing a possible synergistic effect, the experimental increase in melanin in the combined treatment (A+B) was compared to the theoretical increase to be expected if a simple additive effect were obtained.

The test system is the same in assay [2]. Put plainly: In vitro repigmentation assay in reconstructed human pigmented epidermis (RHPE), without irradiation. Format: cell-based. Conditions: A 3.0 ppm. The procedure:
as §1, §2, §3, §4
Another in vitro repigmentation assay was performed using the same reconstructed epidermis model and the same procedure as disclosed in Example 1. In this case, the assay was performed without irradiation.
In this example, the same reconstructed epidermis model was used, namely, based on adding melanocytes and keratinocytes on a polycarbonate filter (SkinEthic® RHPE, available from the company Episkin), using the same protocol disclosed in Example 1.

The mark [3] stands for this setting: Example 1, without irradiation, 6 days of treatment, extraction at day7, B 0.4 ppm, A + B 1.5 ppm + 0.2 ppm (7.5:1) in culture medium.
Setting [4] is: Example 1, without irradiation, 6 days of treatment, B 0.4 ppm, A + B 1.5 ppm + 0.2 ppm (7.5:1).
The mark [5] stands for this setting: Example 3, C 0.1 ppm, A + C 1.5 ppm + 0.05 ppm (30:1).
Where [6] appears, read: Example 3, C 0.1 ppm, A + C 1.5 ppm + 0.05 ppm (30:1) in culture medium.
Setting [7] is: Example 4, D 1.2 ppm, A + D 1.5 ppm + 0.6 ppm (2.5:1).
Setting [8] is: Example 4, D 1.2 ppm, A + D 1.5 ppm + 0.6 ppm (2.5:1) in culture medium.

Non-standard residues stand in square brackets, D forms with d. No end group written: not given here. Nle = CCCC[C@H](N)C(=O)O

As for FHWRYPLPLPGQ (MIA inhibitor), the Melanin in assay [1] was 36.07 µg; in assay [2] (setting [3]) it was 34.39 µg; in assay [2] (setting [6]) it was 36.63 µg; in assay [2] (setting [8]), 33.34 µg. In addition, the “Melanin increase vs. control” value in assay [1] came out at 1.35 µg; in assay [2] (setting [4]), 1.29 µg; in assay [2] (setting [5]) it was 0.11 µg; in assay [2] (setting [7]), 1.33 µg.

With His-DPhe-Arg-Trp (H[dF]RW) [C], the “Melanin increase vs. control” value in assay [2] (setting [5]) stood at 1.93 µg. Besides, the Melanin in assay [2] (setting [6]) was determined as 38.45 µg.

Turning to “Nle-Ala-His-DPhe-Arg-Trp (Ac-[Nle]AH[dF]RW) [B]”, the Melanin in assay [1] was determined as 38.07 µg; in assay [2] (setting [3]) it was 37.31 µg. The results for the “Melanin increase vs. control” value in assay [1] and in assay [2] (setting [4]) were 3.35 µg and 4.21 µg, respectively.

With palmitoyl-prolil-proline [D], in assay [2] (setting [7]), the “Melanin increase vs. control” value was 0.48 µg. In assay [2] (setting [8]), the Melanin was determined as 32.49 µg.
